# Source: patent US7186703B2, “Derivatives of branched-chain lipophilic molecules and uses thereof” (D-Pharm Ltd., priority 2000, dated 2007)
# “And” between values parts separate entries of the source, which are not always exact repeats. Identical values can stand only once.
# What was measured:
# [1] = Octanol/saline solubility and partition coefficient, shake-flask technique; conditions: for LogPc (octanol-saline partition coefficient): octanol/physiological saline; for LogPc (octanol-saline partition coefficient) / Water mg/ml (solubility in aqueous solution): sodium salts; for Water mg/ml (solubility in aqueous solution): physiological saline as aqueous solution; for Octanol mg/ml (solubility in octanol): sodium salts of the branched fatty acids and their PO4 derivatives
# Procedure: The lipophilicity values of various derivatives of branched fatty acids were estimated by comparing the solubility of these compounds in organic versus aqueous solutions. Octanol and physiological saline were used, respectively, as the organic and aqueous solutions. The partition coefficient (Pc) value, i.e. the octanol/saline distribution was measured by the shake-flask technique.
# [2] = type: in vivo; conditions: rats, sodium salt; for LC (minimal concentration that caused death): i.a., viability monitored 24 hours
# Procedure: DP-BFA molecules were evaluated for safety and toxicity. Increasing doses of the tested compounds were administered intra-arterially (i.a.) into rats following the protocol described above in Example 17. Animal viability was monitored for 24 hours to evaluate lethal concentrations (LC). LC is defined as the minimal concentration that caused death.
# Safety index is defined as the ratio between the lethal dose (LC) and the minimal effective concentration (MEC), wherein MEC corresponds to a calculated concentration of the tested compound that elicits accumulation of three times the amount of Evans blue accumulated in control animals treated with vehicle only, i.e. total accumulation of 3 μg EB. The higher the LC/MEC ratio is, the higher the safety index.
# [3] = system: blood brain barrier (BBB); experiment: BBB permeabilization in rats, Evans blue extravasation into brain; type: in vivo, Sprague-Dawley rats; conditions: for permeabilization of the BBB (FIG. 1, in words): Evans blue extravasation in rat brain, 3,n-type BFAs; for μg EB/g brain (at EC50) / MEC (minimal effective concentration) / EC50: Table 5; for MEC (minimal effective concentration): concentration giving 3 μg EB/g brain; for EC50: rat brain, intracarotid infusion, read-out: EC50 (Evans Blue extravasation); for MEC: Table 8, sodium salt, in µM
# Text: Permeabilization of the BBB by DP-BFA was investigated in rat model system by monitoring accumulation in the brain of two markers: a) Evans blue dye (EB), which rapidly binds in vivo with albumin (NW 70 kD) and is an indicator for paracellular transport; and b) Fluorescein sodium salt (F—Na), MW 376 D, which is transported via the cellular space, and enables monitoring transcellular transport. Upon BBB disruption the Evans blue-albumin complex irreversibly accumulates in the intercellular space of the brain. The much smaller tracer fluorescein may be transported intracellularly to occupy both inter and intracellular space in the brain.
# Blood brain barrier permeabilization in Sprague-Dawley rats was induced by brief exposure to DP-BFA. The animals were anesthetized with Rampun-Imalgen and DP-BFA test compounds were administered via the external carotid artery retrograde to the brain (Smith, Q. R. Methods of study. In: Physiology and Pharmacology of the Blood-Brain Barrier. Ed. Bradbury M. W. B. Spinger-Verlag. Berlin-Heidelberg-NY; 1992: 24–52). The pterygo-palathina artery was ligated to avoid escape of infused solutions towards the external head vasculature. DP-BFA solutions were infused over a period of 30 seconds or half an hour, using a Harvard Apparatus Syringe Pump. Blood flow through carotid communis artery was interrupted only at the time of infusion.
# All tested DP-BFA molecules were prepared from stock solutions in either water or ethanol by diluting 200–1000 fold into solution of isosmotic mannitol (5%) in Tromethamine buffer (Sigma) or PBS (pH 7.4)
# The markers, Evans blue (EB, 25 mg/ml) and fluorescein (F—Na, 12.5 mg/ml), in 1 ml solution, were injected intravenously immediately following administration of the tested DP-BFA, or after a specific time interval if reversibility of action was investigated. Supportive i.v. infusion of F—Na (12.5 mg/ml–100 μl/min) was performed for 8 minutes. Brains were washed with saline solution (60 ml) 10 min after the intracarotid “flash”. Brain ipsilateral and contralateral hemispheres and tumors, where applicable, were homogenized separately with 50% trichloroacetic acid (TCA). The markers concentrations in the cortex and in tumors, where, applicable, were determined spectrofluorometrically (Uyama, O. et al., (1988) J. Cereb. Blood Flow Metab. 8, 282–284: Abraham et al., (1996) Neurosci. Lett. 208, 85–88). The markers content was calculated as μg marker per one-gram brain tissue. Standard error and Student's test for statistical significance were used.
# The experiment was carried out on male Sprague-Dawley rats weighing 250–320 g. The procedure described above in Example 17 was followed.
# The effect of the tested compounds on the BBB opening was evaluated by two parameters:
# a) efficacy—The degree of BBB opening estimated in terms of accumulation of Evans Blue albumin (μg EB/g brain tissue); and
# b) potency—measured in terms of EC50 and minimal effective concentration (MEC) values. EC50 is the concentration of a tested compound producing 50% of the maximal effect of Evans Blue extravasation.
# The effect of various DP-BFAs on BBB permeability was tested in the model system of rat brains, as described above in Example 17. Efficacy, namely the level of the BBB opening was expressed as the amount of Evans blue accumulated in the brain (μg EB/g brain). Potency of the tested molecules was estimated by their calculated EC50 and minimal effective concentration (MEC) values.
# [4] = system: blood brain barrier (BBB); experiment: BBB permeability to EB-albumin and Fluorescein in normal rat brains; type: in vivo; conditions: compounds at EC50 (Mannitol 25%); for Ratio F-Na/EB (mean of individual ratios): control 9.5 ± 1.6
# Text: The effect of various DP-BFAs on BBB permeabilization to molecules of different sizes was examined in vivo in the model system of normal rat brains.
# The transport of two markers was followed: a) Evans blue bound to albumin (MW 70 kD) as an indicator for paracellular transport; and b) Fluorescein sodium salt (MW 376 D) that represents small size molecules.
# The Evans blue dye (EB) and Fluorescein sodium salt (F—Na) were infused into the artery carotis externa over 30 seconds according to the protocol described above in Example 17. The test compounds were used at their EC50 concentrations. Control animals were treated with vehicle solution.
# Evans blue extravasation is expressed as the percentage of the total amount of EB accumulated per one gram of brain tissue. The transport of fluorescein into the brain, which is dependent on the serum concentration of this molecule, is presented as percentage of the F—Na level in the serum.
# [5] = system: blood brain barrier (BBB); experiment: BBB opening in C6 glioma-bearing rats, Evans blue accumulation in non-tumor brain; type: in vivo, Sprague Dawley rats; conditions: concentrations around EC50 (Mannitol 25%), unilateral 30 s infusion
# Procedure: (§1) In order to study the ability of DP-BFA compounds to modulate blood tumor barrier (BTB), a model system of C6 glioma-bearing rats, was employed.
# (§2) Sprague Dawley (SD) rats were inoculated with C6 gliosarcoma cells following the procedure described by Bartus et al. (Exp Neurol (1996); 142:14–28). A small burr-hole was made in the frontal scalp bone of the rat fixed in a stereotaxis apparatus. Using a Hamilton syringe, 10 μl or 5 μl of media, containing 2.5×10^5 C6 gliosarcoma cells were inoculated into the frontal cortex. Coordinates were 1 mm posterior of bregma, 2.5 mm—lateral, and 3 mm—depth. The needle remained in the place for 5 min. After removal of the needle, fascia and scalp were sutured. The rats were checked 6–8 days after inoculation, when tumors of sufficient size (20–60 mg) had developed. The tumor was weighed after F—Na visualization and dissection. Parts of the rats' brains were subject to histological examinations and monitored for Evans Blue and Fluorescein uptake into ipsilateral tumour tissue, peritumoural tissue and contralateral tissue.
# (§3) The bilateral tumor model system of C6 glioma-bearing rats described in Example 23 above was employed for screening of various derivatives of DP-BFA for their ability to permeabilize the blood brain barrier (BBB) in comparison to their effect on the blood tumor barrier (BTB). The experimental procedure described in Example 23 was followed except that the tumor-bearing rats were further treated with DP-BFA. The tested compounds, at concentrations around their EC50 values, were unilaterally infused into the external carotis artery over 30 seconds as described in Example 17. Animals treated with vehicle only serve as a control group. Permeabilization effect was quantitated by measuring accumulation of albumin bound Evans blue dye in tumor (T) versus non-tumor (NT) tissues.
# (§4) Specificity index is defined as the ratio between the levels of EB accumulated in tumor and those accumulated in non-tumor brain tissues (T/NT).
# [6] = system: blood tumor barrier (BTB) of C6 glioma; experiment: BTB opening in C6 glioma-bearing rats, Evans blue accumulation in tumor; type: in vivo, Sprague Dawley rats; conditions: for EC50: C6 glioma-bearing rats; for BTB EB μg/g Tumor: concentrations around EC50 (Mannitol 25%), unilateral 30 s infusion; for Specificity Tumor/Non-tumor (T/NT): ratio of EB accumulated in tumor and non-tumor brain
# Procedure: as §1, §2, §3, §4
Molecule,LogPc (octanol-saline partition coefficient) [1],Water mg/ml (solubility in aqueous solution) [1],Octanol mg/ml (solubility in octanol) [1],LC (minimal concentration that caused death) [2],Safety LC/MEC [2],"permeabilization of the BBB (FIG. 1, in words) [3]",μg EB/g brain (at EC50) [3],MEC (minimal effective concentration) [3],EC50 [3],MEC [3],% EB/g brain ([4]; control 0.04 ± 0.01),Brain fluorescein uptake (% of serum F-Na level) ([4]; control 0.3 ± 0.08),Ratio F-Na/EB (mean of individual ratios) [4],BBB EB μg/g Non-tumor brain [5],EC50 [6],BTB EB μg/g Tumor [6],Specificity Tumor/Non-tumor (T/NT) [6]
"CCCCCCCCCCCCCCC(CCC)C(=O)[O-].[Na+] (stereo not shown) [3,14-Na, reference compound]",1.26,>10 mg/mL,>20 mg/mL,78 ± 11 µM,8.6,active,16.5 ± 2.5 μg EB/g brain,9.1 ± 12,40 ± 5 µM,9.1 ± 1.2,0.8 ± 0.07%,3.8 ± 0.5 % of the F—Na level in the ser,4.7 and 4.7 ± 1.7,–,–,–,–
"CCCCCCCC(CCC)C(=O)[O-].[Na+] (stereo not shown) [3,7-Na, reference compound]",–,–,–,–,–,–,0.8 μg EB/g brain,–,> 450 µM,–,–,–,–,–,–,–,–
"4-Hexadecanoyloxyethyl phosphate [3,12-MEG-PO4]",1.09,>10 mg/mL,>10 mg/mL,80 ± 15 µM,–,–,–,–,–,11 ± 2,–,–,–,21 ± 4 µg/g,22 ± 3 µM,25 ± 3 µg/g,1.2 ± 0.2
"CCCCCCCC(CCCCCCC)OP(=O)(O)O [7,7-PO4, 8-Pentadecyl phosphate]",<5,>10 mg/mL,>10 mg/mL,–,–,–,–,–,–,–,–,–,–,–,–,–,–
"CCCCCCCCCCC(CCC)C(=O)[O-].[Na+] (stereo not shown) [3,10-Na, reference compound]",–,–,–,–,–,–,08 μg EB/g brain,–,~700 µM,–,–,–,–,–,–,–,–
"CCCCCCCCCCCCC(CCC)OCCOCCOP(=O)(O)O (stereo not shown) [3,12-(ether)-DEG-PO4, 2-(4′-Hexadecanyloxy)ethoxyethyl phosphate]",0.83,>5 mg/mL,>5 mg/mL,–,–,–,–,–,–,–,–,–,–,–,–,–,–
"CCCCCCCCCCCCCCCCC(CCC)C(=O)[O-].[Na+] (stereo not shown) [3,16-Na, reference compound]",1.26,9.4 mg/mL,>20 mg/mL,431 ± 55 µM,23.9,active,–,18 ± 2,137 ± 17 µM,18 ± 2,–,–,–,–,–,–,–
"4-Octadecyl phosphate [3,14-PO4]",–,–,–,134 ± 18 µM,21.6,–,–,–,–,6.2 ± 0.9,–,–,–,–,–,–,–
"4-Hexadecanyl Phosphate [3,12-PO4]",1.9,>2.5 mg/mL,<5 mg/mL,63 ± 12 µM,19.1,–,–,–,–,3.3 ± 0.5,–,–,5.9,2.5 ± 1.5 µg/g,10 ± 2 µM,14 ± 6 µg/g,6.3 ± 1.3
